Measurements taken from ChEMBL document CHEMBL6153160, “Novel 3-Cycloaminoindole Compounds as Serotonergic Psychedelic Agents for Treating Psychosis, Mental Illness, and CNS Disorders” (ACS Med Chem Lett, 2025).

Molecular target: 5-hydroxytryptamine receptor 2A (Homo sapiens, UniProt P28223)
Test: Displacement of [3H]-ketanserin from human 5-HT2A receptor incubated for 90 mins by microbeta2 microplate counter assay

Sequence of 5-hydroxytryptamine receptor 2A (P28223 whole entry): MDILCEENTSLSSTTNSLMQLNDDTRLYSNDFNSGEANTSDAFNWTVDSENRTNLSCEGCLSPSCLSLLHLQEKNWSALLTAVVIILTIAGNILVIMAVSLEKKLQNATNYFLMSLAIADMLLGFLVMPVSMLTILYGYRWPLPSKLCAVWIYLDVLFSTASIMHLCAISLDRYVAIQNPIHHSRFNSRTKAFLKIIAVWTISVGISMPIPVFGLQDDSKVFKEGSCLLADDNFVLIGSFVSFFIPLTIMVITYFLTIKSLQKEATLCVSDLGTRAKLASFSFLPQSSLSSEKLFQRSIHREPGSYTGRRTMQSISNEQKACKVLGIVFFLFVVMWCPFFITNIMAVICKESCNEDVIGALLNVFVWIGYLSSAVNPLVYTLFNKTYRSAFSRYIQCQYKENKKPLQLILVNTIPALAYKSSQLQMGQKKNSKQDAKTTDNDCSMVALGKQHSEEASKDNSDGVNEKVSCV

**Q.** For `CN(C)CCc1c[nH]c2ccccc12`, which IC50 is on record?
**A.** < 500 nM

**Q.** How did the IC50 turn out when `[2H]c1[nH]c2c([2H])c([2H])c([2H])c([2H])c2c1C1CCN(C)C1` (stereo not drawn) was run?
**A.** < 500 nM

**Q.** With `[2H]c1[nH]c2c([2H])c([2H])c([2H])c([2H])c2c1C1CC([2H])([2H])N(C)C1([2H])[2H]` (stereo not drawn) as the compound, how does the IC50 read?
**A.** < 500 nM
